Measurements published in US20220395500A1, “SMALL MOLECULE ACTIVATORS OF INTERFERON REGULATORY FACTOR 3 AND METHODS OF USE THEREOF” (Neuralexo, Inc., priority 2020, published 2022).

Key:
THP1-Dual cells = assay: THP1-Dual cytotoxicity (Cell Titer Glo, ATP); assay type: cell-based, human; conditions: Human Reporter Cell Line THP1; read-out: Thp1 cytotox CC50
Summary of the method: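 Human THP1-Dual cells were treated across an 8-point dose-response range. Cytotoxicity was measured in-plate by CellTiter-Glo luminescence, which quantifies ATP as a marker of metabolically active cells, and CC50 was taken as the 50% cytotoxic concentration.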

Neuro2a cells = assay: Gene induction in Neuro2a cells (qtPCR); assay type: cell-based, mouse; conditions: 10 ug/ml, 3 hours, compared to 5′pppRNA
Protocol: (§1) RNA was collected from cell pellets and qtPCR was performed with indicated primers. Data is depicted as mRNA fold-change versus vehicle. Values are normalized to actin and are presented as fold change over vehicle control.
(§2) Total RNA isolated from brain cortex, or RNA from cell culture, was reverse transcribed using an Omniscript Reverse Transcription kit (Qiagen). Quantitative PCR was performed using the TaqMan Gene Expression Assays (Applied Biosystems) on an ABI-prism 7700. Results were normalized to β-actin expression and analyzed relative to appropriate controls. The relative quantification of the gene of interest was determined using the comparative CT method (2^−ΔΔCt)
(§3) Since inflammatory pathways mediated by NF-κB are known to have negative effects on stroke outcome, the induction of key detrimental genes including TNF and IL-6 in response to drug treatment was evaluated. […] RNA was collected from cell pellets and qtPCR was performed with indicated primers. Values are normalized to actin and are presented as fold change over vehicle control.

BV2 cells = assay: Gene induction in BV2 cells (qtPCR); assay type: cell-based, mouse; conditions: 10 ug/ml, 3 hours, compared to 5′pppRNA
Protocol: as §1, §2, §3

cerebral ischemic injury = assay: Middle cerebral artery occlusion (MCAO), infarct volume; assay type: in vivo, mouse; conditions: 60 minute MCAO, 24 hours
Protocol: Mice were anesthetized and subjected to middle cerebral artery occlusion (MCAO) using the monofilament suture method. Briefly, a silicone-coated 7-0 monofilament nylon surgical suture was threaded through the external carotid artery to the internal carotid artery to block the middle cerebral artery; […] The suture was then removed to restore blood flow. Mice undergoing ischemic preconditioning followed by injurious ischemia were rested in their home cage for 72 h before receiving the second MCAO (45 min). Cerebral blood flow (CBF) was monitored throughout surgery by laser Doppler flowmetry. The mean CBF value between groups was consistent for each experiment. […] Body temperature was monitored and maintained at 37° C. with a thermostat-controlled heating pad.
Mouse brain was sliced into 7×1 mm coronal sections before 2,3,5-triphenyltetrazolium chloride TTC staining, and the volume of infarct was determined by summing of the area of infarct from individual slices. The infarct size for each image was determined using NIH image analyses. […]
IRFs are master regulators of innate immune receptors, constituting a family of DNA-binding proteins expressed in a variety of tissues. […] Infarct volume was measured 24 hours after surgery. […] Specifically, gene transcription was measured in the brain 24 hours post MCAO in LPS preconditioned wildtype, IRF3 deficient, and IRF7 deficient mice using quantitative PCR. […]

[1] = test system: ISRE-firefly luciferase reporter in RAW264.7 cells; assay: RAW264.7 ISRE-firefly luciferase reporter assay; assay type: cell-based, mouse
Description: Data is depicted as fold increase ISRE activity vs matched vehicle, plotted against log[agonist] (M).
To characterize a small directed subset of molecules known to activate IRF3, mouse macrophage cells (RAW264.7) containing an ISRE-firefly luciferase reporter with a constitutively active renilla luciferase internal control for normalization (Promega) was utilized. IRF3 can activate ISRE through direct binding and via feed-forward mechanisms through potent induction of IFNβ. […] Specifically, RAW264.7 cells containing ISRE firefly luciferase reporter were treated with indicated compounds for 3 hours and luciferase activity was determined.

[2] = test system: IRF3 related genes in brain cortical tissue; assay: DMXAA-induced IRF-related gene expression in mouse brain cortex; assay type: in vivo
Protocol: FIG. 7A is a bar graph depicting DMXAA-induced induction of IRF-related gene expression in mice. […] RNA was extracted and qtPCR was performed with indicated primers. Data is depicted as mRNA fold-change versus vehicle. Values depicted are group means+/−SEM; n=4 per group.
as §2
Values depicted are group means+/−SEM; n=4 per group.

[3] = 10 mg/kg IP, brain tissue at 3 hours

Row | Compound | CC50 (THP1-Dual cells) | induction of IRF-regulated genes RSAD2 and IFIT1 (Neuro2a cells) | induction of IRF-regulated genes RSAD2 and IFIT1 (BV2 cells) | protection against ischemic injury in mice lacking IRF3 (cerebral ischemic injury; IRF3 KO mice, 250 μg IP) | reduction in ischemic injury (infarct volume) compared to controls (cerebral ischemic injury; wild-type mice, 250 μg IP at onset of reperfusion) | EC50 ([1]; Mus musculus, RAW264.7, expanded dose-response study, read-out: EC50 for activating mouse ISRE) | ISRE activation ([1]; RAW264.7, 3 hours post-treatment, 96-well) | IRF3 related gene expression in brain [2, 3] | induction of pro-inflammatory genes TNF in brain [2, 3] | IRF-mediated gene induction in the brain ([2]; 5-fold lower dose (2 mg/kg IP), 3 hours, compared to vehicle)
1 | COc1ccc(C(=O)Nc2cc(-c3nc4ccccc4s3)ccc2C)cc1[N+](=O)[O-] [ND-38] | 44.9 µM |  |  |  |  |  |  |  |  | 
2 | Cc1ccc2c(=O)c3cccc(CC(=O)O)c3oc2c1C [DMXAA, 5,6-dimethylxanthenone-4-acetic acid] |  | most robust induction | most robust induction | not protected | 2 fold | ~16 µM | most potent activators | significant increase | minimal induction | minimal increase
